{"source": "paper PMC11277004", "about": "“Di- and Triselenoesters—Promising Drug Candidates for the Future Therapy of Triple-Negative Breast Cancer” (International Journal of Molecular Sciences, 2024)", "system": "MCF-7 and MDA-MB-231 breast cancer cells", "assay": "Autophagy induction, summary statement over cell lines", "format": "cell-based, human", "details": "vs EDAG-8; 0.5 and 1 µM, 24 h", "method": "The effects of the novel selenoesters and a reference compound (cisplatin) at concentrations of 0.5 and 1 µM (after 24 h) on the activation of the autophagy process in MCF-7, MDA-MB-231, and MCF-10A cells were evaluated utilizing the Autophagy Assay kit, Red (ImmunoChemistry Technologies, Bloomington, MN, USA) via flow cytometry (flow cytometer from BD FACSCanto II, BD Biosciences Systems, San Jose, CA, USA). The entire assay was performed according to the manufacturer’s instructions. After drug treatment, unfixed cells were washed and resuspended in PBS at a concentration of 5 × 10^5 cells/mL. Then, 490 µL each of the cell suspension was taken, transferred to test tubes, and 10 µL of Autophagy Probe, Red solution (previously diluted 1:5 in PBS) was added and incubated (30 min, 37 °C, in the dark). After incubation, the cells were washed and resuspended in cellular assay buffer, before finally adding fixative at a ratio of 1:5 (v/v). After this step, the prepared samples were immediately measured using a flow cytometer (BD FACSCanto II; 10,000 events measured), and the percentage of cells with an occurring autophagy process was calculated using the FACSDiva 6.0 software (both from BD Biosciences Systems, San Jose, CA, USA). The equipment calibration was performed using the BD Cytometer Setup and Tracking Beads (BD Biosciences, San Diego, CA, USA).", "data": [{"smiles": "CC(=O)C[Se]C(=O)c1ccc(C(=O)[Se]CC(C)=O)cc1", "note": "[EDAG-1, Se,Se-bis(2-oxopropyl) benzene-1,4-bis(carboselenoate)]", "values": [{"measurement": "fold weaker pro-autophagic activity compared to the most active derivative", "value": "approximately 2 fold"}]}]}
